Experimental data as given in patent US7745481B2, “Methods and compositions for the treatment and prevention of tumors, tumor-related disorders and cachexia” (Daiichi Sankyo Company, Limited, priority 1997, dated 2010).

Experiments:
[1] = system: mouse malignant melanoma B16-BL6 cells; experiment: Inhibitory effect on lung metastasis of mouse malignant melanoma B16-BL6 cells; format: in vivo; conditions: for LMI (%) lung metastasis inhibitory rate: 1 mg/kg per day oral for five days, colonies counted on 10th day, C57BL/6 mice; for Inhibition of lung metastasis (in words): 1 mg/kg oral, lung metastasis accelerating conditions (LPS)
Description: Groups of mice, each group containing ten C57BL/6 mice (female, age: 8 weeks) were transplanted intravenously into the tail vein with 3×10^4 of mouse malignant melanoma B16-BL6 cells.
The mice were, when necessary, administered intravenously into the tail vein with a bacterial lipopolysaccharide (LPS) in an amount of 3 μg each within one hour before transplantation of the melanoma cells so as to accelerate lung metastasis of the melanoma [M. J. Anasagasti et al., J. Natl. Cancer Research, 89, 645-651 (1997).]
As test compounds, Compound No. 2-118, a compound of formula (IV), a compound of formula (V) and indomethacin were employed, and each was suspended in sterilized distilled water containing 0.5% w/v of carboxymethyl cellulose (CMC), and the suspensions were orally administered at a dose of 1 mg/kg per day for five days starting from the day of the melanoma cell transplantation.
Inhibitory activities on lung metastasis of the melanoma cells were evaluated in terms of the lung metastasis inhibitory rate (LMI %) by counting the number of metastatic colonies in the lung on the 10th day after intravenous transplantation of the mouse malignant melanoma B16-BL6 cells at the tail. LMI(%)=(1−Nt/Nc)×100 • Nt: Numbers of lung metastatic colonies on the 10th day in groups administered with the test compounds; and • Nc: Numbers of lung metastatic colonies on the 10th day in control groups which were not administered with the test compounds.

[2] = system: mouse sarcoma S-180 cells; experiment: Antitumor effect against mouse sarcoma S-180 cells; format: in vivo; conditions: 1 mg/kg oral once per day for 5 days; tumor volume on day 7; Balb/c nude mice
Description: 1×10^6 mouse sarcoma S-180 cells were transplanted subcutaneously in Balb/c nude mice (females, 8 weeks old) in groups of 10 each.
The test compound, Compound No. 2-118, was suspended in sterilized distilled water containing 0.5% w/v carboxymethyl cellulose (CMC) and administered orally once per day for 5 days starting on the day the tumor cells were transplanted.
Antitumor activity was assessed according to the following equation to determine the tumor growth inhibitory rate (GI %) on day 7 after the transplantation. GI(%)=(1−Vt/Vc)×100 • Vt: Mean tumor volume on day 7 in a group administered test compound (*) • Vc: Mean tumor volume on day 7 in an untreated control group (*) • *: Tumor volume is defined as ½×[tumor long axis]×[tumor short axis]^2

[3] = system: Human colon cancer KM12-HX cells; experiment: Antitumor effect against human colon cancer KM12-HX cells (orthotopic transplant in nude mice); format: in vivo, mouse; conditions: 9 doses (days 3-7 and 10-13), tumor weight on day 14, Balb/c nude mice
Description: Human colon cancer KM12-HX cells were orthotopically transplanted into the cecum of nude mice according to the method of Fu et al. [X. Fu et al., Anticancer Res., 12 (1992)] using Balb/c nude mice (females, 7 weeks old) in groups of 10 each.
Specifically, an incision was made into the left lower abdominal region of each mouse under Abacin anesthesia, after which a thin section of tumor measuring 5 mm on a side was sutured to the cecum using absorbable surgical sutures to perform orthotopic transplant. The incision was sutured using absorbable surgical sutures and the mice were warmed and promptly awakened from anesthesia.
The test compound was suspended in sterilized distilled water containing 0.5% w/v carboxymethyl cellulose (CMC) and administered orally in a total of 9 doses consisting of one dose per day from days 3 to 7 after the tumor cell transplantation and from days 10 to 13 after the transplantation.
Antitumor activity was assessed according to the following equation to determine the tumor weight inhibitory rate (GI %) on day 14 after the transplantation. GI(%)=(1−Vt′/Vc′)×100 • Vt′: Mean tumor weight on day 14 in the group administered the test compound • Vc′: Mean tumor weight on day 14 in an untreated control group

[4] = system: mouse colon cancer Colon 26 cells; experiment: Test of anticachexia effects in mice bearing mouse colon cancer Colon 26 cells; format: in vivo
Description: The test animals were CDF1 mice (females, 8 weeks old). They were employed in groups of 10 for each test. 1×10^6 mouse colon cancer Colon 26 cells were transplanted subcutaneously into each animal.
The test compounds were Compounds No. 1-94 and 2-78 as shown above in Tables 1 and 2, respectively, and having the following formulae: […]
Each test compound was suspended in sterilized distilled water containing 0.5% w/v carboxymethyl cellulose (CMC) and administered orally once per day starting on the day of the tumor cell transplantation.
Each test animal was weighed immediately after tumor cell transplantation, and the weight (A g) was recorded. Each animal was then weighed on day 19 after tumor cell transplantation, and the weight (B g) was recorded. The weight gain on day 19 after tumor cell transplantation was calculated as B−A=Δgt for the test animals. The experiment was repeated with two control groups: the first control group (control group 1) was transplanted with the tumor cells but were not treated with any test compound, and the weight gain is reported as Δgc1; the second control group (control group 2) were not transplanted with the tumor cells and were not treated with any test compound, and the weight gain is reported as Δgc2. The body weight recovery rate was determined according to the following formula based on the weight gain on day 19 after tumor cell transplantation, and this value was used as an indicator of the anticachexia effect. Body weight recovery rate (%)=(Δgt−Δgc1)/(Δgc2−Δgc1)×100
(§1) The procedure described in Example 1 was repeated, but using the compound of formula (III) as the test compound, and comparing the weight gain (Δgt) of the test group of animals to which the compound of formula (III) had been administered with a control group (Δgc) into which the tumor cells had been transplanted but to which no anti-tumor compound had been administered. The test animals were female CDF1 mice, 16 weeks old. Also, the weight gain was measured 22 days after tumor transplantation. The average body weight of each group of animals immediately after tumor transplantation was 25 to 26 g.
as §1, with “Example 2” for “Example 1”, “formula (IV)” for “formula (III)”, “mice, 7” for “mice, 16”, “measured 15” for “measured 22”, “was 20” for “was 25”, “to 21” for “to 26”
Test compounds [the compounds of formula (V), (VI), (VII), (VIII), (IX), (X), (XI), (XII), (XIII) and (XIV)] are administered in the same manner as described in Example 2.

[5] = system: mouse colon cancer Colon 26 cells; experiment: Life-prolonging activity test in mice bearing Colon 26 cells; format: in vivo; conditions: Example 7, animals of Examples 3 and 4; present tense, no data
Description: Observation of the mice used in Example 1 above was continued. The life-prolonging index was determined, based on the number of days each mouse survived, and this value was then used as an indicator of the life-prolonging effects of the test compounds.
It should be noted that, in the case of the group of mice treated with a test compound, oral administration of the respective compound once daily was continued on day 20 after tumor cell transplantation and beyond as well. Life-prolonging index (%)=(St/Sc−1)×100 • St: Median value of survival time (days) of the group of mice treated with a test compound • Sc: Median value of survival time (days) of the control group which were […].
The experiment reported in Example 5 was repeated with the animals used in Example 2. In the case of the group of mice treated with a test compound, oral administration of the respective compound once daily was continued on day 23 after tumor cell transplantation and beyond as well.
The experiment reported in Example 5 is repeated with the animals used in Examples 3 and 4.

[6] = system: mouse colon cancer Colon 26 cells; experiment: Test of anticachexia effects in mice bearing mouse colon cancer Colon 26 cells; format: in vivo; conditions: 15 days after tumor transplantation, female CDF1 mice 7 weeks old, control −3.4
[7] = system: human colon cancer cell lines; conditions: literature (Sheng 1997); COX-2 expressing line HCA-7; cited from earlier work
[8] = system: experimental colonic polyposis; conditions: literature (Oshima 1996; Reddy 1996); cited from earlier work
[9] = LPS 3 μg i.v. before transplantation

Cc1cc(-c2ccc(C)c(C)c2)n(-c2ccc(S(N)(=O)=O)cc2)c1 [Compound 2-118, 2-(3,4-dimethylphenyl)-4-methyl-1-(4-sulfamoylphenyl)pyrrole]
LMI (%) lung metastasis inhibitory rate [1, 9]: 34%
LMI (%) lung metastasis inhibitory rate ([1]; no LPS administration): 64%
GI (%) tumor growth inhibitory rate [2]: 54%
GI(%) tumor weight inhibitory rate ([3]; 0.3 mg/kg oral): 12%
GI(%) tumor weight inhibitory rate ([3]; 1 mg/kg oral): 35%
GI(%) tumor weight inhibitory rate ([3]; 3 mg/kg oral): 45%
GI(%) tumor weight inhibitory rate ([3]; 10 mg/kg oral): 59%

Cc1ccc(-c2cc(C(F)(F)F)nn2-c2ccc(S(N)(=O)=O)cc2)cc1 [Compound (IV), 4-(5-p-tolyl-3-trifluoromethyl-1H-pyrazol-1-yl)benzenesulfonamide]
Inhibition of mouse tumor cachexia and weight loss (in words) ([4]; Examples 1-3, 1-10 mg/kg oral): inhibited mouse tumor cachexia and reduced weight loss
Life-prolongation (in words) [5]: exhibit pronounced life-prolongation
Inhibition of lung metastasis (in words) [1]: had no such inhibitory activity
LMI (%) lung metastasis inhibitory rate [1, 9]: 9%
Average Weight Gain (Δg) ([6]; 1 mg/kg oral once per day): -1.2 g
Average Weight Gain (Δg) ([6]; 3 mg/kg oral once per day): -1.3 g
Average Weight Gain (Δg) ([6]; 10 mg/kg oral once per day): -0.6 g

CS(=O)(=O)c1ccc(-n2nc(C(F)(F)F)cc2-c2ccc(F)cc2)cc1 [SC-58125]
Growth inhibitory effects against human colon cancer cell lines (in words) [7]: exhibits growth inhibitory effects against certain types of human colon cancer cell lines

CS(=O)(=O)c1ccc(C2=C(c3ccc(F)c(F)c3)C(=O)OC2)cc1 [MF-tricyclic]
Inhibition of occurrence of experimental colonic polyposis (in words) [8]: inhibit the occurrence of experimental colonic polyposis

CS(=O)(=O)Nc1cc2c(cc1Sc1ccc(F)cc1F)C(=O)CC2 [Compound (V), N-[6-(2,4-difluorophenylthio)-1-oxoindan-5-yl]methanesulfonamide]
Inhibition of mouse tumor cachexia and recovery of body weight loss (in words) ([4]; Example 4, written in present tense, no data): inhibit mouse tumor cachexia and recover loss of average of body weight
Life-prolongation (in words) [5]: exhibit pronounced life-prolongation
Inhibition of lung metastasis (in words) [1]: had no such inhibitory activity
LMI (%) lung metastasis inhibitory rate [1, 9]: 1%
